Measured values taken from publication PMC11079024, “Identification of a family of species-selective complex I inhibitors as potential anthelmintics” (Nature Communications, 2024).
Values joined by “and” are separate entries in the source; they are usually repeats but may differ in a detail not shown here. Equal values may be shown once. Read-outs that look alike come from different tables or passages of the source.

Target: C. elegans (N2) complex I (NADH:ubiquinone oxidoreductase) (Caenorhabditis elegans, UniProt P24887+Q93873+Q94360)
Sequence (Q94360 17-199): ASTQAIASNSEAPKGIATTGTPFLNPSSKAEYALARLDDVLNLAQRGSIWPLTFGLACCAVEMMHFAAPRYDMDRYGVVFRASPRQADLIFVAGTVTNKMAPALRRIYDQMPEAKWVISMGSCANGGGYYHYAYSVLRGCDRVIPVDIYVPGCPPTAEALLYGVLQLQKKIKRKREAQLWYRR
Sequence (P24887 whole entry): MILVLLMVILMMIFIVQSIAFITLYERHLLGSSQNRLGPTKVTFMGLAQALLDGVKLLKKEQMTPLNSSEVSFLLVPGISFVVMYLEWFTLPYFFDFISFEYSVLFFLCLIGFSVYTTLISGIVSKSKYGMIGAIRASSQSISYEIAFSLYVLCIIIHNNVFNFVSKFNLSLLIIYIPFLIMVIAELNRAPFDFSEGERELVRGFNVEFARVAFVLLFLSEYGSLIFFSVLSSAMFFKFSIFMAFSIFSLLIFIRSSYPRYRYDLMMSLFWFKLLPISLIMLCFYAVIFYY
Sequence (Q93873 31-482): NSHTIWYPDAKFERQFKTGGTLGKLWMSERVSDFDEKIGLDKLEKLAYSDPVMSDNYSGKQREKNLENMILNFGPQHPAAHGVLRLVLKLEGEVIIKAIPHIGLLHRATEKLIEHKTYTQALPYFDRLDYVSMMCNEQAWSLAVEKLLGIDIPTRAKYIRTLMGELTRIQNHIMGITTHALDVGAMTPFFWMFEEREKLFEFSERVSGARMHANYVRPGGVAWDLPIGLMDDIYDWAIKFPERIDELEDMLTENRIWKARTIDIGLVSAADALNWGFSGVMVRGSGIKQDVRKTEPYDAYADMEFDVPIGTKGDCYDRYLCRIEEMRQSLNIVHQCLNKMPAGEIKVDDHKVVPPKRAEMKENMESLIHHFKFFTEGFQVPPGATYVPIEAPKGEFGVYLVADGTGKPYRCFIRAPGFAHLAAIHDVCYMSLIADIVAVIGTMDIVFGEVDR
Test: biochemical
Type: biochemical
Conditions: for remaining activity at 0.125 µM / remaining activity at 0.313 µM / remaining activity at 0.625 µM / remaining activity at 1.5 µM / remaining activity at 3 µM / remaining activity at 15 µM / remaining activity at 37.5 µM / remaining activity at 75 µM: wild-type C. elegans mitochondria, read-out: percent (%) in vitro complex I activity relative to solvent control; for IC50: wild-type (N2) mitochondria, read-out: C. elegans Complex I IC50
Procedure, shortened: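 Complex I rate: initial linear slope of A600 over 15 min, expressed as percent of solvent control. Triple freeze-thawed mitochondria (0.2 mg/mL) in KPi pH 7.5, BSA 3 mg/mL, NADH 80 μM, decylubiquinone 60 μM, DCIP 160 μM, antimycin A, KCN.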

[1] = C. elegans, Mean of replicates, read-out: Complex I activity, dose-response data
[2] = C. elegans, individual replicates (Rep), read-out: Complex I activity, dose-response data

In the case of `COc1cc2c(cc1OC)C(C(C)c1ccc(CC(C)C)cc1)=NCC2` (stereo not shown) [NPD10504], the remaining activity at 0.125 µM (mean of replicates) is reported as 92.7%, the remaining activity at 0.125 µM (single replicate) is reported as 88.8% and the remaining activity at 0.313 µM (mean of replicates) is reported as 91.5%. The remaining activity at 0.313 µM (single replicate) was 88.6%, the remaining activity at 0.625 µM (mean of replicates) was 100% and the remaining activity at 0.625 µM (single replicate) was 100%. It also gave a remaining activity at 1.5 µM (mean of replicates) of 78.6%, a remaining activity at 1.5 µM (single replicate) of 76.6% and a remaining activity at 3 µM (mean of replicates) of 58.9%. The remaining activity at 3 µM (single replicate) was 61.4%, the remaining activity at 15 µM (mean of replicates) was 13.5% and the remaining activity at 15 µM (single replicate) was 12.3%. For the same compound, the remaining activity at 37.5 µM (mean of replicates) was 12.4%, the remaining activity at 75 µM (mean of replicates) was 12.3% and the activity at 100 µM (100 µM compound, relative to solvent control, mean (SEM), read-out: % Activity Complex I) was 4.22%. The “Percent in vitro activity, Complex I (single replicate Rep1-Rep4)” value (100 μM of NPD compound, C. elegans mitochondria, individual biological replicates, 100 µM) was 0.000% and 7.255% and 9.637%, the activity at 100 µM (100 μM of NPD compound, C. elegans mitochondria, mean of four biological replicates, read-out: Percent in vitro activity, Complex I (Mean)) was 4.22% and the activity at 0.0001 µM [1] was 100%. The activity at 0.0001 µM [2] was 100%, the activity at 0.0005 µM (C. elegans, dose 0.0005 µM, Mean of replicates, read-out: Complex I activity, dose-response data) was 95.6% and the “Complex I activity, dose-response data” value (C. elegans, dose 0.0005 µM, individual replicates (Rep)) was 99.245 and 96.022 and 93.047. For the same compound, the activity at 0.0005 µM (C. elegans, dose 0.0005 µM, individual replicates (Rep), read-out: Complex I activity, dose-response data) was 94%, the activity at 0.001 µM (C. elegans, dose 0.001 µM, Mean of replicates, read-out: Complex I activity, dose-response data) was 95.6% and the “Complex I activity, dose-response data” value (C. elegans, dose 0.001 µM, individual replicates (Rep)) was 101.885 and 91.805 and 98.125. For the same compound, the activity at 0.001 µM (C. elegans, dose 0.001 µM, individual replicates (Rep), read-out: Complex I activity, dose-response data) was 90.6%, the activity at 0.0025 µM (C. elegans, dose 0.0025 µM, Mean of replicates, read-out: Complex I activity, dose-response data) was 95.4% and the “Complex I activity, dose-response data” value (C. elegans, dose 0.0025 µM, individual replicates (Rep)) was 105.286 and 89.091 and 95.022. For the same compound, the activity at 0.0025 µM (C. elegans, dose 0.0025 µM, individual replicates (Rep), read-out: Complex I activity, dose-response data) was 92.2%, the activity at 0.005 µM (C. elegans, dose 0.005 µM, Mean of replicates, read-out: Complex I activity, dose-response data) was 93.5% and the “Complex I activity, dose-response data” value (C. elegans, dose 0.005 µM, individual replicates (Rep)) was 100.896 and 97.608 and 92.236. The activity at 0.005 µM (C. elegans, dose 0.005 µM, individual replicates (Rep), read-out: Complex I activity, dose-response data) was 83.3%, the activity at 0.013 µM (C. elegans, dose 0.013 µM, Mean of replicates, read-out: Complex I activity, dose-response data) was 97.4% and the “Complex I activity, dose-response data” value (C. elegans, dose 0.013 µM, individual replicates (Rep)) was 86.744 and 107.737 and 98.643 and 96.409. The activity at 0.025 µM (C. elegans, dose 0.025 µM, Mean of replicates, read-out: Complex I activity, dose-response data) was 99.6%, the “Complex I activity, dose-response data” value (C. elegans, dose 0.025 µM, individual replicates (Rep)) was 81.492 and 104.774 and 100.771 and 111.289 and the activity at 0.063 µM (C. elegans, dose 0.063 µM, Mean of replicates, read-out: Complex I activity, dose-response data) was 97%. The “Complex I activity, dose-response data” value (C. elegans, dose 0.063 µM, individual replicates (Rep)) was 104.194 and 94.273 and 98.067, the activity at 0.063 µM (C. elegans, dose 0.063 µM, individual replicates (Rep), read-out: Complex I activity, dose-response data) was 91.6% and the activity at 0.125 µM (C. elegans, dose 0.125 µM, Mean of replicates, read-out: Complex I activity, dose-response data) was 92.7%. For the same compound, the “Complex I activity, dose-response data” value (C. elegans, dose 0.125 µM, individual replicates (Rep)) was 100.304 and 94.360 and 87.363, the activity at 0.125 µM (C. elegans, dose 0.125 µM, individual replicates (Rep), read-out: Complex I activity, dose-response data) was 88.8% and the activity at 0.313 µM (C. elegans, dose 0.313 µM, Mean of replicates, read-out: Complex I activity, dose-response data) was 91.5%. The “Complex I activity, dose-response data” value (C. elegans, dose 0.313 µM, individual replicates (Rep)) was 102.145 and 93.069 and 82.299, the activity at 0.313 µM (C. elegans, dose 0.313 µM, individual replicates (Rep), read-out: Complex I activity, dose-response data) was 88.6% and the activity at 0.625 µM [1] was 100%. For the same compound, the activity at 0.625 µM [2] was 100%, the activity at 1.5 µM (C. elegans, dose 1.5 µM, Mean of replicates, read-out: Complex I activity, dose-response data) was 78.6% and the “Complex I activity, dose-response data” value (C. elegans, dose 1.5 µM, individual replicates (Rep)) was 84.112 and 75.755 and 78.095. For the same compound, the activity at 1.5 µM (C. elegans, dose 1.5 µM, individual replicates (Rep), read-out: Complex I activity, dose-response data) was 76.6%, the activity at 3 µM (C. elegans, dose 3 µM, Mean of replicates, read-out: Complex I activity, dose-response data) was 58.9% and the “Complex I activity, dose-response data” value (C. elegans, dose 3 µM, individual replicates (Rep)) was 63.002 and 56.869 and 54.489. The activity at 3 µM (C. elegans, dose 3 µM, individual replicates (Rep), read-out: Complex I activity, dose-response data) was 61.4%, the activity at 15 µM (C. elegans, dose 15 µM, Mean of replicates, read-out: Complex I activity, dose-response data) was 13.5% and the “Complex I activity, dose-response data” value (C. elegans, dose 15 µM, individual replicates (Rep)) was 13.403 and 18.209 and 10.130. The activity at 15 µM (C. elegans, dose 15 µM, individual replicates (Rep), read-out: Complex I activity, dose-response data) was 12.3%, the activity at 37.5 µM (C. elegans, dose 37.5 µM, Mean of replicates, read-out: Complex I activity, dose-response data) was 12.4% and the “Complex I activity, dose-response data” value (C. elegans, dose 37.5 µM, individual replicates (Rep)) was 3.265 and 5.642 and 23.594 and 17.069. For the same compound, the activity at 75 µM (C. elegans, dose 75 µM, Mean of replicates, read-out: Complex I activity, dose-response data) was 12.3%, the “Complex I activity, dose-response data” value (C. elegans, dose 75 µM, individual replicates (Rep)) was 2.370 and 3.939 and 26.690 and 16.321 and the IC50 was 3.29 µM and 3.3 µM.

`COc1ccc(Cc2nccc3cc(OC)c(OC)cc23)cc1OC` [Papaverine, reference compound] showed a remaining activity at 0.125 µM (mean of replicates) of 95.7%, a remaining activity at 0.313 µM (mean of replicates) of 87.5% and a remaining activity at 0.313 µM (single replicate) of 85.7%. For the same compound, the remaining activity at 0.625 µM (mean of replicates) was 100%, the remaining activity at 0.625 µM (single replicate) was 100% and the remaining activity at 1.5 µM (mean of replicates) was 81.8%. The remaining activity at 1.5 µM (single replicate) was 81.5%, the remaining activity at 3 µM (mean of replicates) was 63.8% and the remaining activity at 3 µM (single replicate) was 67.5%. It also gave a remaining activity at 15 µM (mean of replicates) of 22.1%, a remaining activity at 37.5 µM (mean of replicates) of 6.94% and a remaining activity at 75 µM (mean of replicates) of 7.49%. It also gave an IC50 of 4.34 µM.
